# Measured values taken from patent publication US9957289B2, “Compounds and methods for treating bacterial infections” (Washington University, priority 2013, dated 2018).
# Molecular target: T1, FimH (Escherichia coli, UniProt P08191)
# T1 construct: endogenous in cells; host or cells: type 1 piliated uropathogenic E. coli (UPEC)
# Test: Hemagglutination inhibition (HAI) assay, guinea pig red blood cells
# Assay type: cell-based, E. coli
# Conditions: concentration inhibiting >90% hemagglutination of guinea pig red blood cells
# Description: FIG. 15 depicts the hemagglutination assay (HA) used to assess the compounds' ability to block FimH mediated binding. The HAI titer quantitatively measure the effect of inhibitors on blocking the FimH-mediated hemagglutination (HA) of guinea pig red blood cell infected with E. coli.
# In some embodiments, activity of the compound is measured using hemmagglutination titer of guinea pig red blood cells. Hemagglutination of guinea pig red blood cells by type1 piliated UPEC is dependent upon FimH mannose binding ability and serial dilutions allow a quantitative analysis.
# Hemagglutination assays for mannose-sensitive agglutination of guinea pig red blood cells were performed as previously described.
# T1 sequence (P08191 22-300): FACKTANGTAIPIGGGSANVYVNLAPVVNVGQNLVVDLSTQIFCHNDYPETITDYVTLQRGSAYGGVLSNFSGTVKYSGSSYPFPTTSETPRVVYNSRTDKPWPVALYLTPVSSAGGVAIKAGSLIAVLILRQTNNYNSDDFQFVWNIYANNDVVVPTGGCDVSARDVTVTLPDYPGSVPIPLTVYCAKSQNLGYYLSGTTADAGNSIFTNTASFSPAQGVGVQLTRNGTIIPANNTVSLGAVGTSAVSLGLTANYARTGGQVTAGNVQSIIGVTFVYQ
row,Compound,HAI Titer EC>90
1,"CNC(=O)c1cccc(-c2ccc(C[C@H]3O[C@@H](CO)[C@@H](O)[C@H](O)[C@H]3O)c(C)c2)c1 [Example 19, N-methyl-3-[3-methyl-4-[[(2R,3R,4R,5S,6S)-3,4,5-trihydroxy-6-(hydroxymethyl)tetrahydropyran-2-yl]methyl]phenyl]benzamide]",2.000 µM
2,"Cc1cc(-c2ccc3ccn(CC(=O)N4CCN(C)CC4)c(=O)c3c2)ccc1O[C@H]1O[C@@H](CO)[C@@H](O)[C@H](O)[C@H]1O [Example 12, 2-[2-(4-methylpiperazin-1-yl)-2-oxo-ethyl]-7-[3-methyl-4-[(2R,3R,4S,5S,6S)-3,4,5-trihydroxy-6-(hydroxymethyl)tetrahydropyran-2-yl]oxy-phenyl]isoquinolin-1-one]",0.008 µM
3,"Cc1cc(-c2cccc(C(=O)Nc3ccncc3)c2)ccc1O[C@H]1O[C@@H](CO)[C@@H](O)[C@H](O)[C@H]1O [Example 3, 3-[3-methyl-4-[(2R,3R,4S,5S,6S)-3,4,5-trihydroxy-6-(hydroxymethyl)tetrahydropyran-2-yl]oxy-phenyl]-N-(4-pyridyl)benzamide]",0.064 µM
4,"Cc1cc(-c2ccc3ccn(CCN(C)C)c(=O)c3c2)ccc1O[C@H]1O[C@@H](CO)[C@@H](O)[C@H](O)[C@H]1O [Example 14, 2-(2-dimethylaminoethyl)-7-[3-methyl-4-[(2R,3R,4S,5S,6S)-3,4,5-trihydroxy-6-(hydroxymethyl)tetrahydropyran-2-yl]oxy-phenyl]isoquinolin-1-one]",0.012 µM
5,"Cc1cc(-c2ccc3ccn(CC(=O)O)c(=O)c3c2)ccc1O[C@H]1O[C@@H](CO)[C@@H](O)[C@H](O)[C@H]1O [Example 9, 2-[7-[3-methyl-4-[(2R,3R,4S,5S,6S)-3,4,5-trihydroxy-6-(hydroxymethyl)tetrahydropyran-2-yl]oxy-phenyl]-1-oxo-2-isoquinolyl]acetic acid]",0.016 µM
6,"COC(=O)Cn1ccc2ccc(-c3ccc(O[C@H]4O[C@@H](CO)[C@@H](O)[C@H](O)[C@H]4O)c(C)c3)cc2c1=O [Example 8, methyl 2-[7-[3-methyl-4-[(2R,3R,4S,5S,6S)-3,4,5-trihydroxy-6(hydroxymethyl)tetrahydropyran-2-yl]oxy-phenyl]-1-oxo-2-isoquinolyl]acetate]",0.006 µM
7,"Cc1nnc(-c2cccc(-c3ccc(O[C@H]4O[C@@H](CO)[C@@H](O)[C@H](O)[C@H]4O)c(C)c3)c2)o1 [Example 6, (2S,3S,4S,5R,6R)-2-(hydroxymethyl)-6-[2-methyl-4-[3-(5-methyl-1,3,4-oxadiazol-2-yl)phenyl]phenoxy]tetrahydropyran-3,4,5-triol]",0.062 µM
8,"Cc1cc(-c2ccc3ccn(Cc4ccncc4)c(=O)c3c2)ccc1O[C@H]1O[C@@H](CO)[C@@H](O)[C@H](O)[C@H]1O [Example 15, 7-[3-methyl-4-[(2R,3R,4S,5S,6S)-3,4,5-trihydroxy-6-(hydroxymethyl)tetrahydropyran-2-yl]oxy-phenyl]-2-(4-pyridylmethyl)isoquinolin-1-one]",0.004 µM
9,"COC(=O)c1cccc(-c2ccc(O[C@H]3O[C@@H](CO)[C@@H](O)[C@H](O)[C@H]3O)c(C)c2)c1 [Example 1, methyl 3-[3-methyl-4-[(2R,3R,4S,5S,6S)-3,4,5-trihydroxy-6-(hydroxymethyl)tetrahydropyran-2-yl]oxy-phenyl]benzoate]",0.12 µM
10,"Cc1cc(-c2ccc3ccn(CC(=O)Nc4ccncc4)c(=O)c3c2)ccc1O[C@H]1O[C@@H](CO)[C@@H](O)[C@H](O)[C@H]1O [Example 11, 2-[7-[3-methyl-4-[(2R,3R,4S,5S,6S)-3,4,5-trihydroxy-6-(hydroxymethyl)tetrahydropyran-2-yl]oxy-phenyl]-1-oxo-2-isoquinolyl]-N-(4-pyridyl)acetamide]",0.001 µM
11,"Cc1nnc(-c2ccc(-c3ccc(O[C@H]4O[C@@H](CO)[C@@H](O)[C@H](O)[C@H]4O)c(C)c3)cc2)o1 [Example 5, (2S,3S,4S,5R,6R)-2-(hydroxymethyl)-6-[2-methyl-4-[4-(5-methyl-1,3,4-oxadiazol-2-yl)phenyl]phenoxy]tetrahydropyran-3,4,5-triol]",0.062 µM
12,"Cc1cc(-c2cccc(C(=O)Nc3cccnc3)c2)ccc1O[C@H]1O[C@@H](CO)[C@@H](O)[C@H](O)[C@H]1O [Example 4, 3-[3-methyl-4-[(2R,3R,4S,5S,6S)-3,4,5-trihydroxy-6-(hydroxymethyl)tetrahydropyran-2-yl]oxy-phenyl]-N-(3-pyridyl)benzamide]",0.032 µM
13,"CNC(=O)c1sc(-c2ccc(O[C@H]3O[C@@H](CO)[C@@H](O)[C@H](O)[C@H]3O)c(C)c2)cc1NC(N)=O [Example 17, N-methyl-5-[3-methyl-4-[(2R,3R,4S,5S,6S)-3,4,5-trihydroxy-6-(hydroxymethyl)tetrahydropyran-2-yl]oxy-phenyl]-3-ureido-thiophene-2-carboxamide]",0.024 µM
14,"Cc1cc(-c2ccc3ccn(CC(=O)NCCN)c(=O)c3c2)ccc1OC1OC(CO)C(O)C(O)C1O [Example 13, N-(2-aminoethyl)-2-[7-[3-methyl-4-[(2R,3R,4S,5S,6S)-3,4,5-trihydroy-6-(hydroxymethyl)tetrahydropyran-2-yl]oxy-phenyl]-1-oxo-2-isoquinolyl]acetamide]",0.016 µM
15,"Cc1cc(-c2ccc3ccn(CC(=O)Nc4cccnc4)c(=O)c3c2)ccc1O[C@H]1O[C@@H](CO)[C@@H](O)[C@H](O)[C@H]1O [Example 10, 2-[7-[3-methyl-4-[(2R,3R,4S,5S,6S)-3,4,5-trihydroxy-6-(hydroxymethyl)tetrahydropyran-2-yl]oxy-phenyl]-1-oxo-2-isoquinolyl]-N-(3-pyridyl)acetamide]",0.001 µM
16,"CNC(=O)c1cccc(-c2ccc([C@H](O)C3OC(CO)C(O)C(O)C3O)c(C)c2)c1 (single isomer, unassigned) [Example 18B]",6.000 µM
17,"Cc1cc(-c2ccc3ccn(Cc4cccnc4)c(=O)c3c2)ccc1O[C@H]1O[C@@H](CO)[C@@H](O)[C@H](O)[C@H]1O [Example 16, 7-[3-methyl-4-[(2R,3R,4S,5S,6S)-3,4,5-trihydroxy-6-(hydroxymethyl)tetrahydropyran-2-yl]oxy-phenyl]-2-(3-pyridylmethyl)isoquinolin-1-one]",0.008 µM

# Tested on: UTI89
# Test: Mouse model of acute UTI, bladder bacterial CFU after UTI89 infection
# Assay type: in vivo, Escherichia coli
# Conditions: mice, 25 mg/kg oral in 10% cyclodextrin 30 min prior to infecting with UTI89; 6 hpi
# Description: The efficacy of in vivo mannoside treatment was evaluated after orally dosing animals with 50 mg/kg of mannosides ZFH-4269 (FIG. 1A), ZFH-5254 (FIG. 1B) and ZFH-5240 (FIG. 1C) or DMSO or PBS 30 min prior to infecting with UTI89. At 6 hours post-infection (hpi) the bladders were removed and total bacterial CFUs were quantitated. […] Next, analogs of 254 were evaluated in the same mouse model of urinary tract infection. Animals were orally dosed with 25 mg/kg of mannosides ZFH-4269 (FIG. 2A), 1CJ68 (FIG. 2B) and 1CJ70 (FIG. 2C) in 10% cyclodextrin or 10% cyclodextrin 30 min prior to infecting with UT189.
# The efficacy of in vivo mannoside treatment was evaluated after orally dosing animals with 25 mg/kg of mannosides ZFH269, Prodrug FIM-4269, ZFH-5254, and ZFH-5240 in 10% cyclodextrin or 10% cyclodextrin 30 min prior to infecting with UTI89. At 6 hours post-infection (hpi) the bladders were removed and total bacterial CFUs were quantitated. […] Next, several different prodrugs were evaluated in the same mouse model of urinary tract infection. Animals were orally dosed with 25 mg/kg of mannosides ZFH-4269, prodrug FIM-1233 (FIG. 8B), prodrug FIM-6123 (FIG. 8C) and prodrug 269 in 10% cyclodextrin or 10% cyclodextrin 30 min prior to infecting with UT189.
# The FimH-mannose interaction was further investigated in an effort to develop potential ligand-based antagonists of UTIs. […] The non-reducing Man4 anchors into the mannose-binding pocket while the GlcNAc folds over Thr51 allowing specific interactions with a hydrophobic tyrosine gate. Heptyl mannoside mimics the GlcNAc tail of oligomannose-3 and extends it further to increase interactions outside the binding pocket resulting in high affinity binding (Kd=5 nM). Based on the high affinity of heptyl mannose for FimH, the ability of heptyl mannose to reduce bacterial infection in our mouse model of UTI was tested. First, biofilm formation as a surrogate for IBCs formed in the bladder was evaluated. […] Thus, UPEC strain UTI89 was incubated with heptyl mannose prior to inoculation into the bladders of mice.
# Bacteria were grown under type 1 pili-inducing conditions (2×24 h at 37° C. statically in LB). The bacteria were harvested and resuspended to an OD600 of 0.5 in PBS. Eight-week-old C3H/HeN (Harlan) female mice were anesthetized by inhalation of isoflurane and infected via transurethral catheterization with […] of the bacterial suspension, resulting in 1-2×10^7 inoculum. At 6 hpi, mice were sacrificed by cervical dislocation under anesthesia and the bladders were immediately harvested and processed as described below. All animal studies using mice were approved by the Animal Studies Committee of Washington University (Animal Protocol Number 20100002).
# Mannoside ZFH-2056 was administered either IP (5 mg/kg) or orally (100 mg/kg) 30 min prior to inoculation with UTI89. To enumerate the bacteria present, mice were sacrificed at 6 hpi and bladders were aseptically removed and homogenized in 1 ml PBS, serially diluted and plated onto LB agar plates. CFU was enumerated after 16 h of growth at 37° C.
row,Compound,total bacterial CFUs in the bladder
1,"CNC(=O)c1cccc(-c2ccc(O[C@H]3O[C@@H](COC(=O)CN(C)C)[C@@H](O)[C@H](O)[C@H]3O)c(C)c2)c1 [Example 22, [(2S,3S,4S,5R,6R)-3,4,5-trihydroxy-6-[2-methyl-4-[3-(methylcarbamoyl)phenyl]phenoxy]tetrahydropyran-2-yl]methyl 2-dimethylaminoacetate]",drop in bacterial counts
2,"CNC(=O)c1cccc(-c2ccc(OC3OC(COP(=O)(O)O)C(O)C(O)C3O)c(C)c2)c1 [Example 21, [(2S,3S,4S,5R,6R)-3,4,5-trihydroxy-6-[2-methyl-4-[3-(methylcarbamoyl)phenyl]phenoxy]tetrahydropyan-2-yl]methyl dihydrogen phosphate]",drop in bacterial counts
